# How the values were obtained:
# [1] = rats, intraperitoneally, dose-dependent; cited from earlier work
# [2] = rats, intraperitoneally; cited from earlier work
# GPR88 = target: T1, GPR88 (Homo sapiens, UniProt Q9GZN0); test: Lance Ultra TR-FRET cAMP assay using stable PPLS-HA-GPR88 CHO cells; type: cell-based; details: for Emax: CHO; for EC50: stable PPLS-HA-GPR88 CHO cells, value in parentheses beside pEC50
# T1 construct: expressed in transfected cells
# Experimental: The compounds of the present disclosure offer potent agonism to the orphan receptor GPR88. As such, the compounds of the present disclosure provide therapeutic potential for the treatment of striatal associated disorders such as Parkinson's disease, schizophrenia, and alcohol addiction. All compounds were evaluated for the GPR88 agonist activity in the inventors' previously established in vitro GPR88 Lance TR-FRET cAMP assay. See, supra, Jin et al., 2018, Rahman et al., 2020, and Rahman et al., 2021. As will be described, the TR-FRET signal was converted to fmol cAMP by interpolating from the standard cAMP curve. Fmol cAMP was plotted against the log of compound concentration and data were fit to a three-parameter logistic curve to generate maximum response (Emax) and EC50 values.
# Lance™ Ultra cAMP assay using stable PPLS-HA-GPR88 CHO cells. All cAMP assays were performed using the inventors' previously published methods. […] ACS Chemical Neuroscience 2016, 7, 1418-1432, which is incorporated by reference herein with regard to such teaching. Stimulation buffer containing 1× Hank's Balanced Salt Solution (HBSS), 5 mM HEPES, 0.1% BSA stabilizer, and 0.5 mM final IBMX was prepared and titrated to pH 7.4 at room temperature. Serial dilutions of the test compounds (5 μL) and 300 nM forskolin (5 μL), both prepared at 4× the desired final concentration in 2% DMSO/stimulation buffer, were added to a 96-well white ½ area microplate (PerkinElmer). A cAMP standard curve was prepared at 4× the desired final concentration in stimulation buffer and 5 μL was added to the assay plate. Stable PPLS-HA-GPR88 CHO cells were lifted with versene and spun at 270 g for 10 minutes. The cell pellet was resuspended in stimulation buffer and 4,000 cells (10 μL) were added to each well except wells containing the cAMP standard curve. After incubating for 30 min at room temperature, Eu-cAMP tracer and uLIGHT-anti-cAMPworking solutions were added per the manufacturer's instructions. After incubation at room temperature for 1 hour, the TR-FRET signal (ex 337 nm) was read on a CLARIOstar multimode plate reader (BMG Biotech, Cary, NC).
# Data Analysis. The TR-FRET signal (665 nm) was converted to fmol cAMP by interpolating from the standard cAMP curve. Fmol cAMP was plotted against the log of compound concentration and data were fit to a three-parameter logistic curve to generate EC50 values (Prism, version 6.0, GraphPad Software, Inc., San Diego, CA).
# T1 sequence (Q9GZN0 whole entry): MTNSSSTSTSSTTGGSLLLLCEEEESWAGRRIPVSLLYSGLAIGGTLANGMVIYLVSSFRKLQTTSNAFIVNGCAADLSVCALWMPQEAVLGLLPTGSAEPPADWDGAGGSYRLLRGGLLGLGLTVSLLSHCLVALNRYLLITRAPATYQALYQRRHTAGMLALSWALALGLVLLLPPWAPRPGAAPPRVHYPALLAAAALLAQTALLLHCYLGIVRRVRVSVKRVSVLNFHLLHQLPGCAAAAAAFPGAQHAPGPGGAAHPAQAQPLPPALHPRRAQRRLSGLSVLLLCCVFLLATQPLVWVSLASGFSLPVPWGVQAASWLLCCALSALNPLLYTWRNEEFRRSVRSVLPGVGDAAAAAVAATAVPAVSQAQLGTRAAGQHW
SMILES,alcohol intake [1],alcohol self-administration [1],sucrose self-administration [2],Emax (GPR88),EC50 (GPR88)
COCc1ccc(-c2ccc(N(C[C@@H](N)[C@@H](C)OC)C(=O)[C@@H]3C[C@H]3c3ccccn3)cc2)cc1 [RTI-13951-33],significantly reduced,significantly reduced,without effects,–,–
"C[C@@H](NC(=O)[C@H](CO)c1ccc(-c2ccc(OC3CC3)cc2)cc1)c1ccccc1 [Compound 34, (2S)-2-{4′-cyclopropoxy-[1,1′-biphenyl]-4-yl}-3-hydroxy-N-[(1 R)-1-phenylethyl]propenamide]",–,–,–,86%,245 nM
"CCCC(C)COc1ccc([C@@H](CO)C(=O)N[C@H](C)c2ccc(F)cc2)cc1 (stereo partly drawn) [Compound 12, (2S)—N-[(1 R)-1-(4-Fluorophenyl)ethyl]-3-hydroxy-2-{4-[(2-methylpentyl)oxy]phenyl}propenamide]",–,–,–,92 ± 3%,–
"CCCC(C)COc1ccc([C@@H](CO)C(=O)N[C@H](C)c2ccccc2C)cc1 (stereo partly drawn) [Compound 9, (2S)-3-Hydroxy-2-{4-[(2-methylpentyl)oxy]phenyl}-N-[(1 R)-1-(2-methylphenyl)ethyl]propenamide]",–,–,–,48 ± 8%,–
"CCCc1ccc(-c2ccc(N(C[C@@H]3CCCN3)C(=O)N[C@@H](C)c3ccccc3)cc2)cc1 [Compound 53, 1-[(1 S)-1-Phenylethyl]-3-{4′-propyl-[1,1′-biphenyl]-4-yl}-3-{[(2S)-pyrrolidin-2-yl]methyl}urea]",–,–,–,106 ± 3%,1740 nM

# — patent US20250145561A1, “4-SUBSTITUTED-PHENYL ACETAMIDES AND ARYLUREAS AS AGONISTS FOR THE ORPHAN RECEPTOR GPR88” (RESEARCH TRIANGLE INSTITUTE, priority 2022, published 2025)
